One block for each molecule: values may come before it.
Assays:
HL-60 = experiment: Quantification of drug sensitivity (CellTiter-Blue), HL-60; type: cell-based; settings: HL-60 (non-T cell leukemia), 72 h, 30-fold excess 2-hydroxypropyl-β-cyclodextrin, combination DSF/ATM 1:1
Procedure: (§1) Quantification of drug sensitivity (Figure 2A): Cell lines (including HT‐29) were obtained from ATCC or as gifts from other research groups at the DKFZ and checked for mycoplasma contamination and authenticity before use. Cell lines were seeded in 96‐well plates in RPMI‐1640 medium, supplemented with 10 % BCS (bovine calf serum) and 1 % Pen/Strep at a density of 2×10^4 cells/well. Disulfiram (DSF) and sodium aurothiomalate (ATM) were added at a fixed ratio of 1 : 1, formulated in a 30‐fold molar excess of 2HP‐β‐CD (2‐hydroxypropyl‐β‐cyclodextrin). ATM and DSF monotherapy was also done in the presence of 2HP‐β‐CD, to control for possible combination effects by 2HP‐β‐CD. All concentrations were applied in triplicate. After incubation at 37 °C for 72 h, CellTiter‐Blue (Promega) was added (10 μL/well). After incubation at 37 °C for 4 h, fluorescence (excitation filter: 550 nm, emission filter 590 nm) was determined in an Optima FLUOstar microplate reader (BMG Labtech). Mean values were calculated for each treatment and EC50 values were calculated from […] dose response curves.

MeWo = experiment: Quantification of drug sensitivity (CellTiter-Blue), MeWo; type: cell-based; settings: MeWo (melanoma), 72 h, 30-fold excess 2-hydroxypropyl-β-cyclodextrin, combination DSF/ATM 1:1
Procedure: as §1

SK-OV-3 = experiment: Quantification of drug sensitivity (CellTiter-Blue), SK-OV-3; type: cell-based; settings: SK-OV-3 (ovarian carcinoma), 72 h, 30-fold excess 2-hydroxypropyl-β-cyclodextrin, combination DSF/ATM 1:1
Procedure: as §1

Calu-6 cells = experiment: Quantification of drug sensitivity (CellTiter-Blue), Calu-6; type: cell-based; settings: Calu-6 (NSCLC), 72 h, 30-fold excess 2-hydroxypropyl-β-cyclodextrin, combination DSF/ATM 1:1
Procedure: as §1
Dose-Response Curves of ATM/DSF and 5
Figure S2: Dose-response curves of the s toichiometric mixture of ATM and DSF (blue) as well
as isolated 5 (red) for the treatment of Calu-6 cells (both in the presence of 30-fold excess of 2-
(also on this page, place not known: Normalized Proliferation (CellTiter-Blue) stoichiometric) […]

HCT 116 = experiment: Quantification of drug sensitivity (CellTiter-Blue), HCT 116; type: cell-based; settings: HCT 116 (colon carcinoma), 72 h, 30-fold excess 2-hydroxypropyl-β-cyclodextrin, combination DSF/ATM 1:1
Procedure: as §1

COLO-357 = experiment: Quantification of drug sensitivity (CellTiter-Blue), COLO-357; type: cell-based; settings: COLO-357 (pancreatic cancer), 72 h, 30-fold excess 2-hydroxypropyl-β-cyclodextrin, combination DSF/ATM 1:1
Procedure: as §1

HeLa = experiment: Quantification of drug sensitivity (CellTiter-Blue), HeLa; type: cell-based; settings: HeLa (cervix carcinoma), 72 h, 30-fold excess 2-hydroxypropyl-β-cyclodextrin, combination DSF/ATM 1:1
Procedure: as §1

[1] = test system: cytoplasmic ROS in H838 cells (roGFP2-Orp1); experiment: ROS level in cytoplasm, roGFP2-Orp1 sensor; type: cell-based; settings: 12.5 μM, DMSO stock or up to 32-fold excess of SBE-β-CD
Procedure: (§2) Measurement of ROS levels in cytoplasm and mitochondria (Figure 8): The effects of 33 and auranofin on roGFP2‐Orp1 oxidation were quantified in H838 cells stably expressing roGFP2‐Orp1 targeted either to cytoplasm or mitochondria as described in Ezerina et al.[28] Specifically, a 5 mM stock solution of 33 was prepared by directly dissolving solid 33 into 10 mM, 40 mM, 80 mM, and 160 mM solutions of SBE‐β‐CD (Biomol) in PBS (Gibco). A 100 mM auranofin (Sigma‐Aldrich) solution was prepared in DMSO (Sigma‐Aldrich). This was further diluted to 0.5 mM stock solutions of auranofin in 0 mM, 4 mM, 8 mM, and 16 mM SBE‐β‐CD in PBS. […] Non‐transduced H838 cells were seeded on the same plate to establish background fluorescence. The fluorescence intensity from these wells was subtracted from all the measurement results. To establish the signal baseline, the entire plate was measured every 3 min for 8 cycles in a CLARIOstar fluorescence plate reader (BMG Labtech), with excitation wavelengths of 400 nm and 485 nm, while measuring emission at 520 nm. […] The readout of the roGFP2 measurement is normalized to the positive (1.0) and the negative (0) controls using the following equation: OxDroGFP2=(I400sampleI485red)-(I400redI485sample)/(I400sample)I485red-I485ox+(I485sampleI400ox-I400red)
(§3) where I400 and I485 are the signal intensities measured at 520 nm after excitation at 400 nm and 485 nm, respectively. […]

[2] = test system: mitochondrial ROS in H838 cells (roGFP2-Orp1); experiment: ROS level in mitochondria, roGFP2-Orp1 sensor; type: cell-based; settings: 12.5 μM, DMSO stock or up to 32-fold excess of SBE-β-CD
Procedure: as §2, §3

[3] = Solubility / solubilization in solvents and cyclodextrin (observations); type: physicochemical

Molecule: O=C([O-])CC([S-])C(=O)[O-].[Au+].[Na+].[Na+] (stereo not shown) [ATM, sodium aurothiomalate]
- EC50 (HL-60): 330 µM
- EC50 (MeWo): 130 µM
- EC50 (SK-OV-3): 260 µM
- EC50 (Calu-6 cells): 360 µM
- EC50 (HCT 116): 140 µM
- EC50 (COLO-357): 96 µM
- EC50 (HeLa): 440 µM

- EC50 (HL-60; Homo sapiens): 120 µM
- EC50 (SK-OV-3; Homo sapiens): 340 µM
- EC50 (Calu-6 cells; Homo sapiens): 160 µM
- EC50 (HCT 116; Homo sapiens): 3.4 µM
- EC50 (COLO-357; Homo sapiens, COLO357): 82 µM
- EC50 (HeLa; Homo sapiens): 320 µM
Molecule: CCN(CC)C(=S)SSC(=S)N(CC)CC [DSF, disulfiram]
- EC50 (MeWo; Homo sapiens): 290 µM

Molecule: CC(=O)OC[C@H]1O[C@@H]([S-])[C@H](OC(C)=O)[C@@H](OC(C)=O)[C@@H]1OC(C)=O.CCP(CC)CC.[Au+] [auranofin]
- cytoplasmic ROS (roGFP2-Orp1 oxidation) [1]: high levels of ROS
- mitochondrial ROS (roGFP2-Orp1 oxidation) [2]: high levels of ROS

- EC50 (Calu-6 cells): 1.6 µM
- cyclodextrin required for solubilization [3]: > 30 molar equivalents
- solubility in common/organic solvents ([3]; organic solvents including DMSO, ambient temperature): poor solubility
Molecule: [Au(N,N‐diethyl)dtc]2 [compound 5]

Reference: article PMC8456977, “Inclusion Complexes of Gold(I)‐Dithiocarbamates with β‐Cyclodextrin: A Journey from Drug Repurposing towards Drug Discovery” (Chemistry (Weinheim an Der Bergstrasse, Germany), 2021)
